In the experiment the target is GST-hRIPK1 (8-327) (Homo sapiens (Human), UniProt Q13546). Briefly: Fluorescent Polarization Binding (FP Binding) assay, RIPK1. To be noted: mean of at least two independent experiments. On the procedure: Fluorescent Polarization Binding (FP Binding) assay (Berger S. B. et al. (2015) Cell Death Discovery, 1: 15009; Maki J. L. et al. (2012) Anal Biochem., 427(2): 164-174) was performed in polystyrene low volume 384-well black plate, at RT in a final volume of 10.1 μl/well using 10 nM of GST-hRIPK1 (8-327) enzyme and 5 nM of fluorescent-labeled ligand (14-(2-{[3-({2-{[4-(cyanomethyl)phenyl]amino]-6-[(5-cyclopropyl-1H-pyrazol-3-yl)amino]-4-pyrimidinyl}amino) propyl}amino}-2-oxoethyl)-16,16,18,18-tetramethyl-6,7,7a,8a,9,10,16,18-octahydrobenzo [2″,3″]indolizino[8″,7″:5′,6′]pyrano [3′,2′:3,4]pyrido[1,2-a]indo1-5-ium-2-sulfonate.
Test compounds were serially diluted in DMSO at 100 fold final concentrations in the assay (1% DMSO final). In each well of a 384-well Plate were dispensed 0.1 μL of compound solution (or DMSO for controls) followed by 5 μL of GST-hRIPK1 (8-327) at twice the final concentrations in assay buffer (50 mM HEPES pH 7.5, 10 mM NaCl, 50 mM MgCl2, 0.02% CHAPS, 0.5 mM DTT and 0.01% Pluronic F127). For negative control the enzyme addition was replaced by assay buffer only.
After addition of 5 μL of fluorescentlabeled ligand at twice the final concentrations in assay buffer, the plate was incubated at RT for […]. At the end, the binding was measured as FP value with the Envision (PerkinElmer) plate reader using filter for an excitation λ=531 nm FP and an emission λ=595 nm FP (S & P-pol). GST-hRIPK1 (8-327) enzyme was produced via Baculovirus expression.
Test compound inhibition was expressed as percent inhibition of internal assay controls. For concentration response curves, normalized data is fit and IC50 determined using XL-fit (IDBS) for Excel. The IC50 values were averaged to determine a mean value, for a minimum of two independent experiments. Results are shown in Table 2 (RIPK1 IC50) values: +++=0.1 nM<IC50<100 nM; ++=100 nM<IC50<1 μM; +=1 μM<IC50).

Where [1] appears, read: 10 nM GST-hRIPK1 (8-327), 5 nM fluorescent-labeled ligand, RT, 30 min.

These results are taken from US11203600B2 (Denali Therapeutics Inc., priority 2017, dated 2021).

Chain of GST-hRIPK1 (8-327) (Q13546 8-327): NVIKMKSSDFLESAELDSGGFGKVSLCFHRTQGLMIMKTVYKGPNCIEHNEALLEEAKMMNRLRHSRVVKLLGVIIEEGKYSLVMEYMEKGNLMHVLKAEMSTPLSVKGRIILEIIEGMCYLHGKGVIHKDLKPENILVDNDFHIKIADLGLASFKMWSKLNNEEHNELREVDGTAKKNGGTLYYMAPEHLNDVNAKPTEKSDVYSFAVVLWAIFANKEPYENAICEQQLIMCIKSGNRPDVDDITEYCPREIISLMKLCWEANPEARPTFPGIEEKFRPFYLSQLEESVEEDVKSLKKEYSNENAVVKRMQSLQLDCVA

As for `CC1(C(=O)N2CCOc3c(C#N)cncc3C2)CCN(c2ncccn2)CC1(F)F` (single isomer, unassigned) [Example 298, 4-[3,3-Difluoro-4-methyl-1-pyrimidin-2-yl-piperidine-4-carbonyl]-3,5-dihydro-2H-pyrido[3,4-f][1,4]oxazepine-9-carbonitrile], where the note is “GST-hRIPK1 (8-327)”, the IC50 – broadly, the concentration needed to halve the response being measured – is over 1000 nM.

For the setting “GST-hRIPK1 (8-327)”, `N#Cc1cncc2c1OCCN(C(=O)C1CCN(c3ccnc4c(F)cnn34)CC1)C2` [Example 228, 4-[1-(3-fluoropyrazolo[1,5-a]pyrimidin-7-yl)piperidine-4-carbonyl]-3,5-dihydro-2H-pyrido[3,4-f][1,4]oxazepine-9-carbonitrile] registered a half-maximal inhibitory concentration (IC50) of 0.1 to 100 nM.

As for `CC(F)(F)C(C)(C)C(=O)N1CCOc2c(F)cccc2C1` [Example 18, 3,3-difluoro-1-(9-fluoro-3,5-dihydro-2H-1,4-benzoxazepin-4-yl)-2,2-dimethyl-butan-1-one], the IC50 under setting [1] is 0.1 to 100 nM.

With `N#Cc1cncc2c1OCCN(C(=O)C1(CF)CCN(c3ncc(F)cn3)CC1)C2` [Example 137, 4-(4-(fluoromethyl)-1-(5-fluoropyrimidin-2-yl)piperidine-4-carbonyl)-2,3,4,5-tetrahydropyrido[3,4-f][1,4]oxazepine-9-carbonitrile], under setting [1], the IC50 was 100 to 1000 nM.

Molecule `N#Cc1cncc2c1OCCN(C(=O)C1CCN(c3ncc(F)cn3)CC1(F)F)C2` (single isomer, unassigned) [Example 307, 4-[3,3-Difluoro-1-(5-fluoropyrimidin-2-yl)piperidine-4-carbonyl]-3,5-dihydro-2H-pyrido[3,4-f][1,4]oxazepine-9-carbonitrile] came in with an IC50 (GST-hRIPK1 (8-327)) of 100 to 1000 nM.

Molecule `O=C(C1CCN(c2nccc3ncnn23)CC1(F)F)N1CCOc2c(F)cncc2C1` (stereo not shown) [Example 251, [3,3-difluoro-1-([1,2,4]triazolo[1,5-c]pyrimidin-5-yl)-4-piperidyl]-(9-fluoro-3,5-dihydro-2H-pyrido[3,4-f][1,4]oxazepin-4-yl)methanone] registered an IC50 (GST-hRIPK1 (8-327)) of 100 to 1000 nM.

`N#Cc1cncc2c1OCCN(C(=O)C1CCN(c3nccn4ncnc34)C[C@@H]1F)C2` (stereo partly drawn) [Example 225, 4-[(3,4)-trans-3-fluoro-1-([1,2,4]triazolo[1,5-a]pyrazin-8-yl)piperidine-4-carbonyl]-3,5-dihydro-2H-pyrido[3,4-f][1,4]oxazepine-9-carbonitrile] yielded an IC50 (GST-hRIPK1 (8-327)) of 0.1 to 100 nM.

Turning to `N#Cc1cncc2c1OCCN(C(=O)C1(F)CCN(c3ncc(F)cn3)CC1(F)F)C2` (single isomer, unassigned) [Example 295, 4-[3,3,4-Trifluoro-1-(5-fluoropyrimidin-2-yl)piperidine-4-carbonyl]-3,5-dihydro-2H-pyrido[3,4-f][1,4]oxazepine-9-carbonitrile], for the setting “GST-hRIPK1 (8-327)”, the IC50 fell in the range of 100 to 1000 nM.

With `CC(C)(Cl)C(=O)N1CCOc2c(C#N)cncc2C1` [Example 158, 4-(2-chloro-2-methyl-propanoyl)-3,5-dihydro-2H-pyrido[3,4-f][1,4]oxazepine-9-carbonitrile], the IC50 under setting [1] was 0.1 to 100 nM.

The molecule `COC1(C(=O)N2CCOc3c(C#N)cncc3C2)CCN(c2ncc(F)c(C3CC3)n2)CC1` [Example 233, 4-[1-(4-cyclopropyl-5-fluoro-pyrimidin-2-yl)-4-methoxy-piperidine-4-carbonyl]-3,5-dihydro-2H-pyrido[3,4-f][1,4]oxazepine-9-carbonitrile] registered a half-maximal inhibitory concentration (IC50) (GST-hRIPK1 (8-327)) of 0.1 to 100 nM.

`CCC(C)(CC#N)C(=O)N1CCOc2c(F)cncc2C1` (stereo not shown) [Example 73, 3-(9-fluoro-3,5-dihydro-2H-pyrido[3,4-f][1,4]oxazepine-4-carbonyl)-3-methyl-pentanenitrile]: the IC50 under setting [1] lay in the range of 100 to 1000 nM.

The molecule `CC1(C(=O)N2CCOc3ccccc3C2)CCN(c2ncc(F)cn2)CC1` [Example 9, 3,5-dihydro-2H-1,4-benzoxazepin-4-yl-[1-(5-fluoropyrimidin-2-yl)-4-methyl-4-piperidyl]methanone] gave an IC50 under setting [1] of 0.1 to 100 nM.

`CC(C)(C(=O)N1CCOc2c(C#N)cncc2C1)C1CCN(c2ncc(F)cn2)C1` (stereo not shown) [Example 90, 4-[2-[1-(5-fluoropyrimidin-2-yl)pyrrolidin-3-yl]-2-methyl-propanoyl]-3,5-dihydro-2H-pyrido[3,4-f][1,4]oxazepine-9-carbonitrile] gave an IC50 under setting [1] of 0.1 to 100 nM.

The molecule `CCC(C)C(=O)N1Cc2cncc(C#N)c2OC[C@H]1C` (stereo partly drawn) [Example 76, (3R)-3-methyl-4-(2-methylbutanoyl)-3,5-dihydro-2H-pyrido[3,4-f][1,4]oxazepine-9-carbonitrile] had an IC50 under setting [1] of 100 to 1000 nM.

Consider `COc1nc(N2CCC(C(=O)N3CCOc4c(C#N)cncc4C3)CC2)ncc1Cl` [Example 129, 4-[1-(5-chloro-4-methoxy-pyrimidin-2-yl)piperidine-4-carbonyl]-3,5-dihydro-2H-pyrido[3,4-f][1,4]oxazepine-9-carbonitrile], for which, under setting [1], the half-maximal inhibitory concentration (IC50) was 0.1 to 100 nM.

Consider `CC1(C(=O)N2CCOc3c(C#N)cccc3C2)CCN(c2ncc(F)cn2)CC1` [Example 24, 4-[1-(5-fluoropyrimidin-2-yl)-4-methyl-piperidine-4-carbonyl]-3,5-dihydro-2H-1,4-benzoxazepine-9-carbonitrile], for which the IC50 under setting [1] fell in the range of 0.1 to 100 nM.

The molecule `CC(C)(C(=O)N1CCOc2c(C#N)cncc2C1)C1CN(c2ncc(F)cn2)C1` [Example 85, 4-[2-[1-(5-fluoropyrimidin-2-yl)azetidin-3-yl]-2-methyl-propanoyl]-3,5-dihydro-2H-pyrido[3,4-f][1,4]oxazepine-9-carbonitrile] registered an IC50 under setting [1] of 100 to 1000 nM.

Consider `COc1nc(N2CCC(F)(C(=O)N3CCOc4c(C#N)cncc4C3)CC2)ncc1Cl` [Example 128, 4-[1-(5-chloro-4-methoxy-pyrimidin-2-yl)-4-fluoro-piperidine-4-carbonyl]-3,5-dihydro-2H-pyrido[3,4-f][1,4]oxazepine-9-carbonitrile], for which the IC50 under setting [1] was 0.1 to 100 nM.

On to `CC(C)(COC(F)(F)F)C(=O)N1CCOc2c(C#N)cncc2C1` [Example 51, 4-[2,2-dimethyl-3-(trifluoromethoxy)propanoyl]-3,5-dihydro-2H-pyrido[3,4-f][1,4]oxazepine-9-carbonitrile], for which the IC50 under setting [1] was 0.1 to 100 nM.

Where the note is “GST-hRIPK1 (8-327)”, `N#Cc1cncc2c1OCCN(C(=O)C1(O)CCN(c3ncc(F)cn3)CC1F)C2` (stereo not shown) [Example 208, 4-[3-fluoro-1-(5-fluoropyrimidin-2-yl)-4-hydroxy-piperidine-4-carbonyl]-3,5-dihydro-2H-pyrido[3,4-f][1,4]oxazepine-9-carbonitrile] came in with an IC50 of 100 to 1000 nM.

`CC(CC(F)(F)F)C(=O)N1CCOc2c(C#N)cncc2C1` (stereo not shown) [Example 141, 4-(4,4,4-trifluoro-2-methyl-butanoyl)-3,5-dihydro-2H-pyrido[3,4-f][1,4]oxazepine-9-carbonitrile] gave an IC50 under setting [1] of 100 to 1000 nM.

For the molecule `N#Cc1cncc2c1OCCN(C(=O)C1(F)CCN(c3ccc4nccn4n3)CC1)C2` [Example 109, 4-(4-fluoro-1-imidazo[1,2-b]pyridazin-6-yl-piperidine-4-carbonyl)-3,5-dihydro-2H-pyrido[3,4-f][1,4]oxazepine-9-carbonitrile], the IC50 under setting [1] is 100 to 1000 nM.

Take `COc1cnc(N2CCC(F)(C(=O)N3CCOc4c(C#N)cncc4C3)CC2)nc1` [Example 101, 4-[4-fluoro-1-(5-methoxypyrimidin-2-yl)piperidine-4-carbonyl]-3,5-dihydro-2H-pyrido[3,4-f][1,4]oxazepine-9-carbonitrile]: under setting [1], the IC50 fell in the range of 100 to 1000 nM.

Regarding `CC1(C(=O)N2CCOc3c(C#N)cncc3C2)CCN(c2ncc(F)cn2)CC1` [Example 40, 4-[1-(5-fluoropyrimidin-2-yl)-4-methyl-piperidine-4-carbonyl]-3,5-dihydro-2H-pyrido[3,4-f][1,4]oxazepine-9-carbonitrile], the IC50 under setting [1] lay in the range of 0.1 to 100 nM.

Take `N#Cc1cncc2c1OCCN(C(=O)C1CCN(c3ncc(F)cn3)CC1)C2` [Example 155, 4-[1-(5-fluoropyrimidin-2-yl)piperidine-4-carbonyl]-3,5-dihydro-2H-pyrido[3,4-f][1,4]oxazepine-9-carbonitrile]: the IC50 under setting [1] lay within 0.1 to 100 nM.

The molecule `COC1(C(=O)N2CCOc3c(F)cncc3C2)CCN(c2ncccn2)CC1` [Example 135, (9-fluoro-3,5-dihydro-2H-pyrido[3,4-f][1,4]oxazepin-4-yl)-(4-methoxy-1-pyrimidin-2-yl-4-piperidyl)methanone] gave an IC50 under setting [1] of 0.1 to 100 nM.

For the setting “GST-hRIPK1 (8-327)”, `O=C(C1CCN(c2nccc3ncnn23)C[C@@H]1F)N1CCOc2c(F)cncc2C1` (stereo partly shown) [Example 255] displayed an IC50 of 100 to 1000 nM.

On to `CC(F)(F)C(C)(C)C(=O)N1CCOc2c(C#N)cncc2C1` [Example 142, 4-(3,3-difluoro-2,2-dimethyl-butanoyl)-3,5-dihydro-2H-pyrido[3,4-f][1,4]oxazepine-9-carbonitrile], for which the IC50 under setting [1] is 0.1 to 100 nM.
